{"source": "patent US11213542B2", "about": "“Method and agent for lowering total cholesterol levels and for improving blood lipid spectrum composition” (BIOGIX, INC., priority 2018, dated 2022)", "test_system": "patients with abnormal levels of lipid spectrum", "key": {"[1]": {"conditions": "Visit 1 (baseline), 4000 mg vitamin PP daily for 5 days"}, "[2]": {"conditions": "Visit 2 (5 days of supplementation), 4000 mg vitamin PP daily"}, "[3]": {"conditions": "Visit 3 (10 days after last dose), 15 days, 4000 mg vitamin PP daily for 5 days"}, "[4]": {"conditions": "Visit 4 (30 days after last dose), 35 days, 4000 mg vitamin PP daily for 5 days"}}, "note": "Read-outs that look alike come from different tables or passages of the source. Marks after values point to notes of the source that are not given here.", "data": [{"smiles": "O=C(O)c1cccnc1", "note": "[PP, vitamin PP]", "values": [{"measurement": "patients dropped out due to side effects", "setting": "3rd day of the trial", "value": 1, "unit": "patients"}, {"measurement": "effect on lipid spectrum (in words)", "setting": "4000 mg vitamin PP daily, 5 days", "value": "quickly lowers TC and LDL, without significantly changing the rest of the lipid spectrum parameters"}, {"measurement": "patients dropped out due to side effects", "setting": "4th day of the trial", "value": 3, "unit": "patients"}, {"measurement": "patients dropped out due to adverse effects", "setting": "PP group, 4000 mg vitamin PP daily, 5 days", "value": 12, "unit": "%"}, {"measurement": "HDL (high density lipoproteins)", "setting": "[1]", "value": 0.98, "unit": "mmol/L"}, {"measurement": "LDL (low density lipoproteins)", "setting": "[1]", "value": 3.13, "unit": "mmol/L"}, {"measurement": "La (lipoprotein a)", "setting": "[1]", "value": 36.75, "unit": "mg/dL"}, {"measurement": "TC (total cholesterol)", "setting": "[1]", "value": 6.77, "unit": "mmol/L"}, {"measurement": "TG (triglycerides)", "setting": "[1]", "value": "2.35* mmol/L"}, {"measurement": "VLDL (very low density lipoproteins)", "setting": "[1]", "value": 1.14, "unit": "mmol/L"}, {"measurement": "HDL (high density lipoproteins)", "setting": "[2]", "value": 0.99, "unit": "mmol/L"}, {"measurement": "LDL (low density lipoproteins)", "setting": "[2]", "value": 2.58, "unit": "mmol/L"}, {"measurement": "La (lipoprotein a)", "setting": "[2]", "value": 38.39, "unit": "mg/dL"}, {"measurement": "TC (total cholesterol)", "setting": "[2]", "value": 5.99, "unit": "mmol/L"}, {"measurement": "TG (triglycerides)", "setting": "[2]", "value": 2.40, "unit": "mmol/L"}, {"measurement": "VLDL (very low density lipoproteins)", "setting": "[2]", "value": 1.11, "unit": "mmol/L"}, {"measurement": "HDL (high density lipoproteins)", "setting": "[3]", "value": 0.95, "unit": "mmol/L"}, {"measurement": "LDL (low density lipoproteins)", "setting": "[3]", "value": 2.97, "unit": "mmol/L"}, {"measurement": "La (lipoprotein a)", "setting": "[3]", "value": 37.40, "unit": "mg/dL"}, {"measurement": "TC (total cholesterol)", "setting": "[3]", "value": 6.12, "unit": "mmol/L"}, {"measurement": "TG (triglycerides)", "setting": "[3]", "value": 2.33, "unit": "mmol/L"}, {"measurement": "VLDL (very low density lipoproteins)", "setting": "[3]", "value": 1.15, "unit": "mmol/L"}, {"measurement": "HDL (high density lipoproteins)", "setting": "[4]", "value": 0.99, "unit": "mmol/L"}, {"measurement": "LDL (low density lipoproteins)", "setting": "[4]", "value": 3.18, "unit": "mmol/L"}, {"measurement": "La (lipoprotein a)", "setting": "[4]", "value": 37.29, "unit": "mg/dL"}, {"measurement": "TC (total cholesterol)", "setting": "[4]", "value": 6.81, "unit": "mmol/L"}, {"measurement": "TG (triglycerides)", "setting": "[4]", "value": 2.37, "unit": "mmol/L"}, {"measurement": "VLDL (very low density lipoproteins)", "setting": "[4]", "value": 1.16, "unit": "mmol/L"}, {"measurement": "duration of efficacy", "setting": "after 5-day course of 4000 mg vitamin PP daily", "value": "≤ 10", "unit": "days"}, {"measurement": "patients dropped out due to side effects", "setting": "second day of the trial", "value": 2, "unit": "patients"}]}]}
